These results are taken from patent US5061713A, “Analgesic oxazolopyridine compounds” (Science et Organization, priority 1989, dated 1991).

One experiment concerns writhing movements. Briefly: analgesic activity, phenyl-p-benzoquinone writhing movements (technique derived from Siegmund). Particulars: Mus musculus; mice, oral, 1 hour before i.p. phenyl-p-benzoquinone; counted 5th to 10th minute; read-out: ED50, the dose producing a 50% activity (% decrease in the number of writhing movements). The experiment is classed as in vivo. As for the experimental part:
The activity against pain was investigated in mice (23-25 g) according to a protocol derived from the technique described by SIEGMUND (SIEGMUND E.A., R. A. CADMUS & GOLU, J. Pharm. Exp. Ther. 119, 184, 1957). The mice, randomized in batches of 12 animals, received the treatment orally (excipient for the controls) 1 hour before the intraperitoneal injection of a 0.02% aqueous-alcoholic solution of phenyl-p-benzoquinone (Sigma). The writhing movements are counted between the 5th and 10th minute after injection.
The percentage activity obtained was evaluated for each dose (% decrease in the number of writhing movements in the treated animals relative to the controls). An ED50, the dose producing a 50% activity, was determined for each product.
Background: An intraperitoneal irritant provokes the stretching counted in writhing tests.

The next experiment relates to edema. Briefly: anti-inflammatory activity, acute inflammation induced by carrageenan in the rat hind foot (method of Winter). It is filed as in vivo. Conditions: rats, 1 hour before carrageenan, edema determined 3 hours after injection, read-out: ED30, the dose producing a 30% activity (percentage decrease in the mean edema). As for the experimental part: The anti-inflammatory potential of the compounds was investigated on a model of acute inflammation induced by the subcutaneous injection of a solution of carrageenan into the rat hind foot, according to a technique based on the method of WINTER, C.A., E. A. RISLEY and G. N. NUSS (Proc. Soc. Exp. Med. 111, 554, 1962). The rats (100-120 g), randomized in batches of 8, were treated (including the controls, which receive excipient) 1 hour before the local injection of a 0.5% suspension of carrageenan (Sigma type IV; 0.1 ml per rat). The edema is determined 3 hours after injection, by plethysmometric measurement (UGO BASILE water plethysomometer) of the volume of each of the hind feet (edema=volume of the inflamed foot-volume of the non-inflamed foot).
The percentage activity corresponds to the percentage decrease in the mean edema of the batch compared with the mean of the corresponding control batch. An ED30, the dose producing a 30% activity, was determined.
(The carrageenan paw model is a standard test of acute inflammation.)

`CCCC(=O)c1ccnc2nc(-c3ccccc3)oc12` [Example 2, 2-PHENYL-7-BUTYRYLOXAZOLO[4,5-b]PYRIDINE]: the ED50 (usually the midpoint of the dose-response relation) in the experiment on writhing movements is roughly 5 mg/kg.
For the compound `Fc1ccccc1-c1nc2ncccc2o1` [Example 6 of U.S. Pat. No. 4,038,396, 2-(2-fluorophenyl)oxazolo[4,5-b]pyridine], the ED50 in the experiment on writhing movements is roughly 12 mg/kg. Moreover, in the experiment on edema, the ED30 came to 50 mg/kg.
Regarding `CCCC(=O)c1ccnc2nc(-c3ccccc3F)oc12` [Example 6, 2-(2-FLUOROPHENYL)-7-BUTYRYLOXAZOLO[4,5-b]PYRIDINE], the ED50 in the experiment on writhing movements was roughly 8 mg/kg.
